Experiments:
NQO1 protein = NQO1 protein (Homo sapiens, UniProt P15559); experiment: NQO1 activity measurement (cytochrome C reduction); type: biochemical; details: 5 ng NQO1 protein, 200 μM NADH, 77 μM cytochrome C, 37° C., absorbance 550 nm for 10 minutes
Method: An enzyme reaction solution included 25 mM Tris/HCl (pH 7.4), 0.14% bovine serum albumin, 200 μM NADH, 77 μM cytochrome C, and 5 ng of NQO1 protein. Enzymatic reaction was initiated by adding NADH and performed at 37° C. In this regard, a reaction rate was measured by observing absorbance, which was increased due to reduction of cytochrome C, at 550 nm for 10 minutes and NQO1 activity was represented as an amount of reduced cytochrome C [nmol cytochrome C reduced/min/μg protein].
Extinction coefficient for cytochrome C:21.1 mmol/L/cm=21.1 μmol/ml/cm

Cells = experiment: Measurement of lactate change amount within cells; type: cell-based; details: PCA extract of cells, lactate measured from supernatant (Megazyme, K-LATE)
Method: Cells were treated with 400 μl of 6% PCA, and then collected and extracted. Centrifugation (13,000 rpm, 10 min) was performed. A precipitate was dried using a Speed-Vac and then a weight of dried precipitate was measured. A supernatant was neutralized using 400 μl of 1 M KOH and a final volume thereof was adjusted to 1 ml using 0.33 M KH2PO4/K2HPO4, pH 7.5. Centrifugation (13,000 rpm, 10 min) was performed and the amount of lactate was measured from a supernatant (Megazyme, K-LATE).

NQO1 protein, sequence (P15559 whole entry, species assumed): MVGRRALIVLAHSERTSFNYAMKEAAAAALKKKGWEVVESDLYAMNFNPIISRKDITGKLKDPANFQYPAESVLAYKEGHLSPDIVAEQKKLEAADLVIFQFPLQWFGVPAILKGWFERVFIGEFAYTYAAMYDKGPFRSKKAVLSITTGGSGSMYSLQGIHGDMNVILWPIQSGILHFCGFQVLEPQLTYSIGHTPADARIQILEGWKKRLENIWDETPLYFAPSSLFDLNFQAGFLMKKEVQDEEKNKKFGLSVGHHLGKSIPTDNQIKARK

Row | SMILES | NQO1 activity (5 μM, [nmol cytochrome C reduced/min/μg protein]) (NQO1 protein) | Lactate change amount within cells (nmol/mg cell) (Cells)
1 | CC(C)(C)c1nc2c([nH]1)C(=O)C(=O)c1cccnc1-2 [Example 27] | 207.4 nmol cytochrome C reduced/min/μg protein | 9.6
2 | CCc1nc2c([nH]1)C(=O)C(=O)c1cc(N)ccc1-2 [Example 25] | 173.1 nmol cytochrome C reduced/min/μg protein | 6.1
3 | O=C1C(=O)c2[nH]c(CNc3ccccc3)nc2-c2ccccc21 [Example 49] | 128.4 nmol cytochrome C reduced/min/μg protein | 5.2
4 | CC(C)(C)c1nc2c(n1Cc1ccccc1)C(=O)C(=O)c1cccnc1-2 [Example 46, 3-benzyl-2-tert-butyl-3H-imidazo[4,5-h]quinoline-4,5-dione] | 160.1 nmol cytochrome C reduced/min/μg protein | 8.9

Source: US10766882B2, “1,2-naphthoquinone based derivative and method of preparing the same” (YUNGJIN PHARM. CO., LTD., priority 2013, dated 2020)
